# Measurements as given in publication PMC2760346 (Bioorganic & medicinal chemistry, 2009).
# Assays:
# [1] = target: T1, human P2Y14 receptor (Homo sapiens, UniProt Q15391); assay: Stimulation of PLC; format: cell-based; details: for fold less potent than 1 at the P2Y14 receptor: relative to 1; for activation of the P2Y14 receptor, % of full activation: at 10 μM
# T1 sequence (Q15391 1-338): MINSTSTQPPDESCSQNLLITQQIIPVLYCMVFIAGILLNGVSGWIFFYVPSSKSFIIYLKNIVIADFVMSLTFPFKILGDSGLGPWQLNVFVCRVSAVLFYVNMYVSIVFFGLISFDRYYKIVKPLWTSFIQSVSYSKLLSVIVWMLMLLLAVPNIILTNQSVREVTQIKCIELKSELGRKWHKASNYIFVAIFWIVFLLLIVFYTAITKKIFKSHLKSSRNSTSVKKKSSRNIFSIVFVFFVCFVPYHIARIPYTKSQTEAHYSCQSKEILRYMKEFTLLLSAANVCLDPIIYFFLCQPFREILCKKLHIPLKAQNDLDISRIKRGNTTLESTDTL
# [2] = target: human P2Y2 receptor (Homo sapiens, UniProt P41231); format: cell-based; details: at concentrations up to 10 μM
# [3] = target: T1, human P2Y14 receptor; details: cited from earlier work
# [4] = tested on: rat P2Y14 receptor; details: cited from earlier work
# Sequence of human P2Y2 receptor (P41231 whole entry): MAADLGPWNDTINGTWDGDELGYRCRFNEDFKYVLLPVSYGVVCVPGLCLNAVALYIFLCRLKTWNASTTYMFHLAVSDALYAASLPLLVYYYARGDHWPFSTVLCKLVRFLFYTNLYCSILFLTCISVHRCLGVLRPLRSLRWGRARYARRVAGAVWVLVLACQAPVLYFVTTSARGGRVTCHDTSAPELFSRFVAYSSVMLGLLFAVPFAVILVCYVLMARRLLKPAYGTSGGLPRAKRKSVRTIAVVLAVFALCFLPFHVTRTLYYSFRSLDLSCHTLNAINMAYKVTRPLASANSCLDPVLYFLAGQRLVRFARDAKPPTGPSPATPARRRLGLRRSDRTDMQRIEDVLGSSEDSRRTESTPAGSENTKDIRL
smiles,measurement,setting,value
"O=c1ccn([C@@H]2O[C@H](COP(=O)(O)OP(=O)(O)O[C@H]3O[C@H](CO)[C@@H](F)[C@H](O)[C@H]3O)[C@@H](O)[C@H]2O)c(=O)[nH]1 [Compound 13, UDP-4″-F-[1″]4″-deoxy glucose]",fold less potent than 1 at the P2Y14 receptor,[1],2 fold
"O=c1ccn([C@@H]2O[C@H](COP(=O)(O)OP(=O)(O)O[C@H]3O[C@H](CO)[C@@H](O)[C@H](F)[C@H]3O)[C@@H](O)[C@H]2O)c(=O)[nH]1 [Compound 12, UDP-3″-F-[1″]3″-deoxy glucose]",activity at the human P2Y2 receptor (activation of PLC),[2],inactive
"O=c1ccn([C@@H]2C[C@H](COP(=O)(O)OP(=O)(O)O[C@H]3O[C@H](CO)[C@@H](O)[C@H](O)[C@H]3O)[C@@H](O)[C@H]2O)c(=O)[nH]1 [Compound 29, Diphosphoric Acid 1″-α-D-[1″]Glucopyranosyl Ester 2-(carbocyclic uridin-5′-yl)ester]","activation of the P2Y14 receptor, % of full activation",[1],< 20%
"O=c1ccn([C@@H]2O[C@H](COP(=O)(O)OP(=O)(O)O[C@H]3O[C@H](CO)[C@@H](O)[C@H](O)[C@H]3F)[C@@H](O)[C@H]2O)c(=O)[nH]1 [Compound 11, UDP-2″-F-[1″]2″-deoxy glucose]",fold less potent than 1 at the P2Y14 receptor,[1],9.6 fold
"O=c1ccn([C@H]2[C@H](O)[C@H](O)[C@@]3(COP(=O)(O)OP(=O)(O)O[C@H]4O[C@H](CO)[C@@H](O)[C@H](O)[C@H]4O)C[C@H]23)c(=O)[nH]1 [Compound 28, Diphosphoric Acid 1″-α-D-[1″]Glucopyranosyl Ester 2-((N)-Methanocarba-uridin-5′-yl)ester]",EC50,[1],> 10 µM
same,agonist activity at the P2Y14 receptor,[1],abolished agonist activity
"CO/N=c1/ccn([C@@H]2O[C@H](COP(=O)(O)OP(=O)(O)O[C@H]3O[C@H](CO)[C@@H](O)[C@H](O)[C@H]3O)[C@@H](O)[C@H]2O)c(=O)[nH]1 [Compound 4, Diphosphoric Acid 1″-α-D-[1″]Glucopyranosyl Ester 2-((N^4-methoxy)cytidin-5′-yl)ester]",agonist activity at the P2Y14 receptor,[1],only weakly active
"O=c1ccn([C@@H]2O[C@H](COP(=O)(O)OP(=O)(O)OC[C@H]3O[C@H](O)[C@@H](O)[C@@H]3O)[C@@H](O)[C@H]2O)c(=O)[nH]1 [Compound 22, Up2-[5″]arabinose]",fold decrease in P2Y14 potency on inversion of the 2″-hydroxyl configuration,[1]; relative to 21,2 fold
"O=c1ccn([C@@]23C[C@H]2[C@H](COP(=O)(O)OP(=O)(O)O[C@H]2O[C@H](CO)[C@@H](O)[C@H](O)[C@H]2O)[C@@H](O)[C@H]3O)c(=O)[nH]1 [Compound 27, Diphosphoric Acid 1″-α-D-[1″]Glucopyranosyl Ester 2-((S)-Methanocarba-uridin-5′-yl)ester]",EC50,[1],> 10 µM
same,agonist activity at the P2Y14 receptor,[1],abolished agonist activity
"CC(C)(C)OC(=O)NCCNC(=O)[C@H]1O[C@H](OP(=O)(O)OP(=O)(O)OC[C@H]2O[C@@H](n3ccc(=O)[nH]c3=O)[C@H](O)[C@@H]2O)[C@H](O)[C@@H](O)[C@@H]1O [Compound 17b, Diphosphoric Acid 1″-α-D-[1″] (Glucuronic acid-N-(2-t-butyloxycarbonylethyl amide))pyranosyl Ester 2-(uridin-5′-yl)ester]",efficacy at the P2Y14 receptor,[1],fully activate
"O=c1ccn([C@@H]2O[C@H](COP(=O)(O)OP(=O)(O)OC[C@H]3O[C@H](O)C[C@@H](O)[C@@H]3O)[C@@H](O)[C@H]2O)c(=O)[nH]1 [Compound 20, Up2-[6″]2″-deoxyglucose]","activation of the P2Y14 receptor, % of full activation",[1],less than 50%
"O=c1ccn([C@@H]2O[C@H](COP(=O)(O)OP(=O)(O)O[C@H]3O[C@H](CO)[C@@H](O)[C@H](O)[C@H]3O)[C@@H](O)[C@H]2O)c(=S)[nH]1 [Compound 2, 2-thio-UDP-[1″]glucose]",activity at the human P2Y2 receptor (activation of PLC),[2],inactive
same,fold increase in P2Y14 potency,[3]; relative to 1,7 fold
"NCCNC(=O)[C@H]1O[C@H](OP(=O)(O)OP(=O)(O)OC[C@H]2O[C@@H](n3ccc(=O)[nH]c3=O)[C@H](O)[C@@H]2O)[C@H](O)[C@@H](O)[C@@H]1O [Compound 16, Diphosphoric Acid 1″-α-D-[1″](Glucuronic acid-N-(2-amino-ethyl amide))pyranosyl Ester 2-(uridin-5′-yl)ester]",efficacy at the P2Y14 receptor,[1],fully activated the receptor
"CC(=O)NCCNC(=O)[C@H]1O[C@H](OP(=O)(O)OP(=O)(O)OC[C@H]2O[C@@H](n3ccc(=O)[nH]c3=O)[C@H](O)[C@@H]2O)[C@H](O)[C@@H](O)[C@@H]1O [Compound 17a, Diphosphoric Acid 1″-α-D-[1″](Glucuronic acid-N-(2-acetylethyl amide))pyranosyl Ester 2-(uridin-5′-yl)ester]",activity at the human P2Y2 receptor (activation of PLC),[2],inactive
same,efficacy at the P2Y14 receptor,[1],fully activate
O=c1ccn(C2CC(O)C(COP(=O)(O)OP(=O)(O)OC3OC(CO)C(O)C(O)C3O)O2)c(=O)[nH]1 (stereo not shown) [2′-deoxy-UDPG],activity at the P2Y14 receptor,[3],inactive
"O=c1ccn([C@@H]2O[C@H](COP(=O)(O)OP(=O)(O)OC[C@H]3O[C@](O)(CO)[C@@H](O)[C@@H]3O)[C@@H](O)[C@H]2O)c(=O)[nH]1 [Compound 24, Up2-[6″]fructose]",activity at the human P2Y2 receptor (activation of PLC),[2],inactive
"O=c1ccn([C@@H]2O[C@H](COP(=O)(O)OP(=O)(O)O)[C@@H](O)[C@H]2O)c(=O)[nH]1 [UDP, Uridine 5′-diphosphate]",type of activity at the rat P2Y14 receptor,[4],potent agonist
same,type of activity at the human P2Y14 receptor,[3],partial agonist/competitive antagonist
"O=c1ccn([C@@H]2O[C@H](COP(=O)(O)OP(=O)(O)O[C@H]3O[C@H](CF)[C@@H](O)[C@H](O)[C@H]3O)[C@@H](O)[C@H]2O)c(=O)[nH]1 [Compound 14, UDP-6″-F-[1″]6″-deoxy glucose]",fold less potent than 1 at the P2Y14 receptor,[1],3.5 fold
